Experimental data taken from ChEMBL document CHEMBL2021759, “Discovery of 4'-azido-2'-deoxy-2'-C-methyl cytidine and prodrugs thereof: a potent inhibitor of Hepatitis C virus replication” (Bioorg Med Chem Lett, 2012).

How the values were obtained:
[1] = tested on: Rattus norvegicus; assay: Cmax in Sprague-Dawley rat assessed as 4'-azido-2'-deoxy-2'-methylcytidine level at 20 umol/kg, po; format: ADME, organism-based; parameters: dose 20 umol/kg, route oral; conditions: in vivo
[2] = tested on: Rattus norvegicus; assay: AUCt in Sprague-Dawley rat assessed as 4'-azido-2'-deoxy-2'-methylcytidine level at 20 umol/kg, po; format: ADME, organism-based, Plasma; conditions: in vivo
[3] = tested on: Rattus norvegicus; assay: Oral bioavailability in Sprague-Dawley rat assessed as 4'-azido-2'-deoxy-2'-methylcytidine level at 20 umol/kg; format: ADME, organism-based; conditions: in vivo
[4] = tested on: Rattus norvegicus; assay: Apparent oral clearance in Sprague-Dawley rat assessed as 4'-azido-2'-deoxy-2'-methylcytidine level at 20 umol/kg, po; format: ADME, organism-based; conditions: in vivo
[5] = tested on: Rattus norvegicus; assay: Tmax in Sprague-Dawley rat assessed as 4'-azido-2'-deoxy-2'-methylcytidine level at 20 umol/kg, po; format: ADME, organism-based; conditions: in vivo
[6] = tested on: Hepatitis C virus; assay: Antiviral activity against Hepatitis C virus infected in human HuH7-Rep cells assessed as inhibition of viral replication by luciferase reporter gene assay; format: functional, organism-based, Hepacivirus hominis; conditions: Huh-7
[7] = Cytotoxicity against human HuH7 cells by CMV-luciferase reporter gene assay; format: cell-based, Huh-7
[8] = tested on: Rattus norvegicus; assay: AUC (0 to infinity) in Sprague-Dawley rat assessed as 4'-azido-2'-deoxy-2'-methylcytidine level at 20 umol/kg, po; format: ADME, organism-based, Plasma; parameters: dose 20 umol/kg, route oral, time infinity; conditions: in vivo
[9] = Cytotoxicity against human MT4 cells by LTR-luciferase reporter gene assay; format: cell-based
[10] = Oral bioavailability in Sprague-Dawley rat at 20 umol/kg; format: ADME, organism-based; conditions: in vivo
[11] = Intrinsic clearance in rat liver microsomes; format: ADME, Microsome; conditions: read-out: CLH
[12] = Apparent permeability across human Caco2 cells; format: ADME, cell-based; conditions: Caco-2
[13] = Apparent oral clearance in Sprague-Dawley rat at 20 umol/kg, po; format: ADME, organism-based; conditions: in vivo
[14] = AUC (0 to infinity) in Sprague-Dawley rat at 20 umol/kg, po; format: ADME, organism-based; parameters: dose 20 umol/kg, time infinity, route oral; conditions: plasma
[15] = AUCt in Sprague-Dawley rat at 5 umol/kg, iv; format: ADME, organism-based; conditions: plasma
[16] = Intrinsic clearance in human liver microsomes; format: ADME, Microsome; conditions: read-out: CLH
[17] = AUCt in Sprague-Dawley rat at 20 umol/kg, po; format: ADME, organism-based; conditions: plasma
[18] = Tmax in Sprague-Dawley rat at 20 umol/kg, po; format: ADME, organism-based; conditions: in vivo
[19] = Cmax in Sprague-Dawley rat at 20 umol/kg, po; format: ADME, organism-based; parameters: dose 20 umol/kg, route oral; conditions: in vivo
[20] = AUC (0 to infinity) in Sprague-Dawley rat at 5 umol/kg, iv; format: ADME, organism-based; parameters: dose 5 umol/kg, route intravenous, time infinity; conditions: plasma

In the case of `CC(C)[C@H](N)C(=O)OC[C@@]1(N=[N+]=[N-])O[C@@H](n2ccc(N)nc2=O)[C@H](C)[C@@H]1OC(=O)[C@@H](N)C(C)C.O=C(O)C(F)(F)F`, the Cmax [1] is reported as 290 nM, the AUCt [2] is reported as 1.22 µM·h and the F [3] is reported as 7%. It also gave a CL/F [4] of 247 mL/min/kg, a Tmax [5] of 1 h and an EC50 [6] of 1.9 µM. It also gave a CC50 [7] greater than 100 µM and an AUC [8] of 1.35 µM·h.

With `CC(C)[C@H](N)C(=O)OC[C@@]1(N=[N+]=[N-])O[C@@H](n2ccc(N)nc2=O)[C@H](C)[C@@H]1O.O=C(O)C(F)(F)F` the Cmax [1] was 500 nM, the AUCt [2] was 1.56 µM·h and the F [3] was 8%. The CL/F [4] was 200 mL/min/kg, the Tmax [5] was 1 h and the EC50 [6] was 0.79 µM. For the same compound, the CC50 [7] was greater than 100 µM and the AUC [8] was 1.68 µM·h.

For `CC(C)[C@H](N)C(=O)O[C@H]1[C@@H](C)[C@H](n2ccc(N)nc2=O)O[C@@]1(CO)N=[N+]=[N-].O=C(O)C(F)(F)F`, the Cmax [1] was 1140 nM, the AUCt [2] was 3.66 µM·h and the F [3] was 20%. It also gave a CL/F [4] of 82.2 mL/min/kg, a Tmax [5] of 1 h and an EC50 [6] of 0.72 µM. It also gave a CC50 [7] greater than 100 µM and an AUC [8] of 4.06 µM·h.

`C[C@H]1[C@H](n2ccc(=O)[nH]c2=O)O[C@@](COP(=O)(N[C@@H](C)C(=O)OCc2ccccc2)Oc2cccc3ccccc23)(N=[N+]=[N-])[C@H]1O` (stereo partly drawn) gave a CC50 [9] of 41 µM, an EC50 [6] of 6.2 µM and a CC50 [7] greater than 100 µM.

For `C[C@H]1[C@H](n2ccc(N)nc2=O)O[C@@](COP(=O)(N[C@@H](C)C(=O)OCc2ccccc2)Oc2cccc3ccccc23)(N=[N+]=[N-])[C@H]1O` (stereo partly drawn), the CC50 [9] was greater than 32 µM, the EC50 [6] was 3 µM and the CC50 [7] was greater than 100 µM.

`C[C@H]1[C@H](n2ccc(=O)[nH]c2=O)O[C@@](CO)(N=[N+]=[N-])[C@H]1O` showed a CC50 [9] greater than 100 µM, an IC50 [6] greater than 50 µM and a CC50 [7] greater than 100 µM.

`C[C@H]1[C@H](n2ccc(N)nc2=O)O[C@@](CO)(N=[N+]=[N-])[C@H]1O` gave a bioavailability [10] of 14%, a microsomal CLint [11] of less than 6 µL/min/mg and a Papp [12] of 1.7 ×10⁻⁶ cm/s. The CC50 [9] was greater than 98 µM, the CL/F [13] was 119 mL/min/kg and the AUC(0-inf) [14] was 2.87 µM·h. It also gave an AUC(0-t) [15] of 4.97 µM·h, a microsomal CLint [16] of less than 6 µL/min/mg and an EC50 [6] of 1.2 µM. It also gave an AUC(0-t) [17] of 2.66 µM·h, a CC50 [7] greater than 98 µM and a Tmax [18] of 2 h. For the same compound, the Cmax [19] was 610 nM and the AUC(0-inf) [20] was 4.98 µM·h.

Work on `CC(C)C(=O)OC[C@@]1(N=[N+]=[N-])O[C@@H](n2ccc(N)nc2=O)[C@H](C)[C@@H]1OC(=O)C(C)C` yielded a Cmax [1] of 4650 nM, an AUCt [2] of 12.7 µM·h and an F [3] of 65%. For the same compound, the Papp [12] was 7.7 ×10⁻⁶ cm/s, the CC50 [9] was greater than 50 µM and the CL/F [4] was 25.8 mL/min/kg. For the same compound, the Tmax [5] was 1 h, the microsomal CLint [16] was greater than 300 µL/min/mg and the EC50 [6] was 6.6 µM. For the same compound, the CC50 [7] was greater than 100 µM and the AUC [8] was 12.9 µM·h.
